According to patent US10300070B2, “Metabolically-activated drug conjugates to overcome resistance in cancer therapy” (The Brigham and Women's Hospital, Inc., priority 2014, dated 2019):

How the values were obtained:
Format in all cases: cell-based
[1] = test system: MDA-MB-231 parent or DTC; assay: Glucose uptake (2-NBDG) determined by FACS; settings: sub-lethal docetaxel (25 nM), MDA-MB-231
Experimental: MDA-MB-231 (ATCC), MDA-MB-468 and 4T-1 mammary carcinoma cells (ATCC) were cultured in DMEM containing 10% Fetal Bovine Serum (FBS) at 37 C and 5% CO2. DU145 and DU145-TxR were provided by A. Mizokami^63 and cultured in DMEM containing 10% FBS, resistant line included 100 nM paclitaxel in the culture media. During treatments with chemotherapeutics, cells were grown to semi-confluence and treated with indicated concentrations of chemotherapy in serum-containing medium for indicated time points. When small molecule inhibitors were included in treatments, they were added simultaneously with chemotherapy. For siRNA gene knockdown, cells were transfected with silencer-select siRNA plasmids (Ambion, Invitrogen, Grand Island, N.Y.) pan-CD44(1) (s2682) panCD44(2) (s2681), siHIF1A (s6539) using lipofectamine 2000 (Invitrogen, Carlsbad Calif.) following manufacturer protocol and cultured for 72 hours prior to treatment. Scrambled siRNA was used as a control. For chemotherapy treatment experiments: Cancer cells were plated at a density of 0.5-1×10^5 cells/ml and allowed to adhere for 24-48 hr. When cells reached ˜70% confluency they were treated with cytotoxics at indicated concentrations for 24-48 hours and utilized for subsequent assays. For experiments in which a shorter incubation was used (i.e. 15 min-4 hours) fresh media was added 24 hours prior to addition of chemotherapy suspended to stock concentration in PBS. For generation of DTC: Cells were treated for 48 hours with chemotherapy. Following washes with PBS, adherent cells were trypsinized and re-plated at a density of 1.5-2×10^5 cells/ml and cultured in serum-containing medium. After 24 hours incubation, floating cells were removed and remaining cells were washed with 1× PBS and considered as chemotherapy-tolerant cells. A population of drug naïve parent cells were always cultured alongside DTC and fresh media was added at every interval that experimental population (DTC) received fresh media.
In vitro detection of glucose uptake was performed using 2-(N-7-Nitrobenz-2-oxa-1,3-diazol-4-yl)Amino)-2-Deoxyglucose (2-NBDG) (Invitrogen, Carlsbad Calif.), dissolved in DMSO to 50 mM. Cells were pre-treated with kinase inhibitors or vehicle for 3 hours in glucose- and phenol red-free media before addition of 50 μM 2-NBDG and subsequently read by FACS ex/em 488/535 nm. ROS was determined by pre-loading cells with CM-DCFDA (1 μM), washed 2 times with PBS and subsequently treated with H2O2 or vehicle; when kinase inhibitors were included in treatment, cells were first incubated with inhibitor for 3 hours prior to CM-DCFDA loading. Fluorescence was then determined by FACS ex/em 488/535 nm. For the following assays, cells were trypsinized and counted by Nexcelom cell counter (Lawrence, Mass.) prior to being subjected to analysis in order to achieve a quantitative value per cell: Reduced glutathione was determined using a colorimetric glutathione recycling system by DTNB following manufacturer protocol (Biovision, Milpitas Calif.). ATP analysis was performed using the ATP colorimetric analysis kit (Biovision) according to manufacturer protocol. Reductive stress was detected using the Enzo nitroreductase hypoxia kit (Enzo Life Sciences, Ann Arbor Mich.) following manufacturer protocol and visualized by fluorescent microscopy; a set of non-docetaxel-treated control cells loaded with fluorescent probe were compared against docetaxel-treated cells to derive a % redox stress increase which was calculated as fluorescence intensity of nitroreductase probe per cell and expressed as increase from vehicle. Protein synthesis was measured by two means 1. L-azidohomoalanine amino acid analog of methionine containing an azide moiety was added to cultured cells (parent or DTC) for 3 hours which is incorporated into proteins during active protein synthesis. […]

[2] = test system: CD44v6 and EGFR; assay: CD44/CD44v6-EGFR immunocomplex by immunoprecipitation and western blot; settings: MDA-MB-231 cells; docetaxel sublethal dose (10 nM), with or without erlotinib
Experimental: Laemli sample buffer was prepared as a 5× solution containing □-mercaptoethanol as a reducing agent. Immunoprecipitaion was performed using both classic and direct IP kits purchased from Pierce following manufacturer protocols (Thermo Fisher inc. Rockford, Ill.). Briefly, cell lysates were prepared using IP/Lysis Buffer (Thermo Fisher inc. Rockford, Ill.) in the presence of 2× HALT protease/phosphatase inhibitor cocktail (Thermo Fisher inc. Rockford, Ill.). […] Direct immunoprecipitation was performed following manufacturer protocol. […] Protein samples were resolved by SDS-PAGE and transferred to PVDF membranes prior to incubation at 4 C with indicated primary antibodies; NHE-1, GLUT-1 and cytoplasmic domain-targeting EGFR were purchased from Santa Cruz Biotech (Santa Cruz, Calif.). p70S6K and pp70S6K, mTOR and pMTOR, pERM and ERM, Ezrin and pEzrin, pAKT and AKT, pPRAS40 and PRAS40, EGFR and pEGFR antibodies cleaved caspase-3 and β-Actin were purchased from cell signaling technology (Cambridge, Mass.). EGFR and CD44v6 neutralizing antibodies were purchased from R&D (Minneapolis, Minn.). […] Optical densities of western blots were measured using ImageJ open source software (National Institutes of Health) and validated using Adobe CS5.

[3] = test system: CD44; assay: Cell surface CD44 expression by FACS; settings: sub-lethal docetaxel (25 nM), MDA-MB-231
Experimental: DU145 and DU145-TxR were provided by A. Mizokami^63 and cultured in DMEM containing 10% FBS, resistant line included 100 nM paclitaxel in the culture media. During treatments with chemotherapeutics, cells were grown to semi-confluence and treated with indicated concentrations of chemotherapy in serum-containing medium for indicated time points. When small molecule inhibitors were included in treatments, they were added simultaneously with chemotherapy. […] Scrambled siRNA was used as a control. For chemotherapy treatment experiments: Cancer cells were plated at a density of 0.5-1×10^5 cells/ml and allowed to adhere for 24-48 hr. […] Following washes with PBS, adherent cells were trypsinized and re-plated at a density of 1.5-2×10^5 cells/ml and cultured in serum-containing medium. […] A population of drug naïve parent cells were always cultured alongside DTC and fresh media was added at every interval that experimental population (DTC) received fresh media.
Cells were cultured as indicated, removed from culture dishes with accutase stem-pro dissociation reagent (Invitrogen, Carlsbad Calif.) and fixed with 4% paraformaldehyde in PBS for 30 min at RT, washed twice with PBS and blocked in 10% goat serum (v/v). Whenever necessary, cells were permeabilized with 0.05% saponin in PBS. Cells were incubated with CD44-APC (BD biosciences, San Jose, Calif.) overnight at 4 C and analyzed by FACS (C6 Accuri cyomteters Inc Ann Arbor, Mich.), data analysis using FlowJo software (Tree Star Inc., Ashland Oreg.) and Accuri cFlow plus software to obtain and confirm mean fluorescent intensity (GNU.org).

CC(=O)O[C@@]12CO[C@@H]1C[C@H](O)[C@@]1(C)C(=O)[C@H](O)C3=C(C)[C@@H](OC(=O)[C@H](O)[C@@H](NC(=O)OC(C)(C)C)c4ccccc4)C[C@@](O)([C@@H](OC(=O)c4ccccc4)[C@H]21)C3(C)C [docetaxel]
time point at which augmented glucose uptake was observed [1]: 24 h
immunocomplex between CD44v6 and EGFR [2]: induced
time to induction of cell surface CD44 [3]: ≤ 4 h
